We go through 21 molecules from ChEMBL document CHEMBL4020706, “Design, synthesis and biological evaluation of novel hydroxamates and 2-aminobenzamides as potent histone deacetylase inhibitors and antitumor agents” (Eur J Med Chem, 2017).

The test system of test [1] is MGC-803. Nature of the test: Antiproliferative activity against human MGC803 cells after 72 hrs by CCK-8 reagent based assay. The format is functional, cell-based. Particulars: MGC-803, 72 h. Background: Tetrazolium dyes change colour on reduction, which living cells bring about.
Test [2] deals with HepG2. Nature of the test: Antiproliferative activity against human HepG2 cells after 72 hrs by CCK-8 reagent based assay. The settings on record: HepG2, 72 h. The format is functional, cell-based.
The test system of test [3] is A549. Nature of the test: Antiproliferative activity against human A549 cells after 72 hrs by CCK-8 reagent based assay. The format is functional, cell-based. The settings on record: A549, 72 h.
Test [4] deals with HCT-116. Nature of the test: Antiproliferative activity against human HCT116 cells after 72 hrs by CCK-8 reagent based assay. The settings on record: HCT-116, 72 h. The format is functional, cell-based.
Test [5] concerns A549. Nature of the test: Induction of apoptosis in human A549 cells assessed as early apoptotic cells at 8 umol/L after 48 hrs by Alexa Fluor 488 Annexin/propidium iodide staining-based flow cytometry (reference value: 3.41%). The format is functional. On the technique in general: In flow cytometry, cells or beads pass a laser one at a time.
Test [6] has as its system A549. Nature of the test: Cell cycle arrest in human A549 cells assessed as accumulation at G2/M phase at 2 umol/L after 48 hrs by propidium iodide staining-based flow cytometry (reference value: 9.1%). It counts as functional. Particulars: at 2 µM.
Test [7] has as its system A549. Nature of the test: Induction of apoptosis in human A549 cells assessed as late apoptotic cells at 4 umol/L after 48 hrs by Alexa Fluor 488 Annexin/propidium iodide staining-based flow cytometry (reference value: 2.93%). It counts as functional.
The subject of test [8] is A549. Nature of the test: Cell cycle arrest in human A549 cells assessed as accumulation at G0/G1 phase at 16 umol/L after 48 hrs by propidium iodide staining-based flow cytometry (reference value: 75.77%). It counts as functional.
Test [9] deals with A549. Nature of the test: Induction of apoptosis in human A549 cells assessed as necrotic cells at 4 umol/L after 48 hrs by Alexa Fluor 488 Annexin/propidium iodide staining-based flow cytometry (reference value: 0.87%). The format is functional.
Test [10] concerns A549. Nature of the test: Induction of apoptosis in human A549 cells assessed as late apoptotic cells at 8 umol/L after 48 hrs by Alexa Fluor 488 Annexin/propidium iodide staining-based flow cytometry (reference value: 2.93%). It counts as functional.
Test [11] deals with A549. Nature of the test: Cell cycle arrest in human A549 cells assessed as accumulation at G2/M phase at 16 umol/L after 48 hrs by propidium iodide staining-based flow cytometry (reference value: 9.1%). The format is functional. The settings on record: at 16 µM.
Test [12] concerns A549. Nature of the test: Cell cycle arrest in human A549 cells assessed as accumulation at S phase at 16 umol/L after 48 hrs by propidium iodide staining-based flow cytometry (reference value: 15.13%). It counts as functional.
Test [13] deals with A549. Nature of the test: Cell cycle arrest in human A549 cells assessed as accumulation at G0/G1 phase at 2 umol/L after 48 hrs by propidium iodide staining-based flow cytometry (reference value: 75.77%). The format is functional.
Test [14] deals with A549. Nature of the test: Induction of apoptosis in human A549 cells assessed as viable cells at 4 umol/L after 48 hrs by Alexa Fluor 488 Annexin/propidium iodide staining-based flow cytometry (reference value: 92.79%). It counts as functional. The settings on record: A549, 48 h, read-out: Activity.
In test [15] the test system is A549. Nature of the test: Induction of apoptosis in human A549 cells assessed as early apoptotic cells at 4 umol/L after 48 hrs by Alexa Fluor 488 Annexin/propidium iodide staining-based flow cytometry (reference value: 3.41%). The format is functional.
The test system of test [16] is A549. Nature of the test: Cell cycle arrest in human A549 cells assessed as accumulation at S phase at 2 umol/L after 48 hrs by propidium iodide staining-based flow cytometry (reference value: 15.13%). It counts as functional.
The subject of test [17] is A549. Nature of the test: Induction of apoptosis in human A549 cells assessed as viable cells at 8 umol/L after 48 hrs by Alexa Fluor 488 Annexin/propidium iodide staining-based flow cytometry (reference value: 92.79%). It counts as functional. Particulars: A549, 48 h, read-out: Activity.
Test [18] deals with A549. Nature of the test: Induction of apoptosis in human A549 cells assessed as necrotic cells at 8 umol/L after 48 hrs by Alexa Fluor 488 Annexin/propidium iodide staining-based flow cytometry (reference value: 0.87%). It counts as functional.
Test [19] deals with A549. Nature of the test: Inhibition of colony formation in human A549 cells after 7 days by crystal violet staining based assay. The format is functional, cell-based.

As a reminder, the IC50 is the point on the concentration scale where inhibition reaches its midpoint. Read a high IC50 as weaker potency in that assay.

Each structure is given as a SMILES string.

As for `Nc1ccccc1NC(=O)c1ccc(CN2CCc3cc(Br)ccc32)cc1`, the results for the IC50 in test [1] and in test [2] were 7.39 µM and 10.7 µM, respectively.

On to `Nc1cc(F)ccc1NC(=O)c1ccc(COc2ccccc2)cc1`, for which the IC50 in test [3] worked out at 8.34 µM; in test [1] it was 6.02 µM; in test [2], 7.02 µM.

With `Cc1ccc(OCc2ccc(C(=O)Nc3ccccc3N)cc2)cc1`, the half-maximal inhibitory concentration (IC50) was 5.43 µM in [3], 4.86 µM in [4], 6.53 µM in test [1] and 6.59 µM in test [2].

Take `Nc1ccccc1NC(=O)c1ccc(COc2ccc(Br)cc2)cc1`: the IC50 in test [3] is 24.4 µM; in test [4], more than 32 µM; in test [1] it was more than 32 µM; in test [2], more than 32 µM.

`CC(C)c1ccc(OCc2ccc(C(=O)Nc3ccccc3N)cc2)cc1`: the concentration for half-maximal inhibition (IC50) in [3] is 7.46 µM; in test [4], 4.57 µM; in [1], more than 32 µM; in test [2] it was more than 32 µM.

As for `CCc1ccc(OCc2ccc(C(=O)Nc3ccccc3N)cc2)cc1`, the half-inhibitory concentration (IC50) in test [3] worked out at 6.42 µM; in test [4] it was 4.83 µM; in test [1], 5.88 µM; in test [2], 6.96 µM.

As for `CC(=O)Nc1ccc(C(=O)Nc2ccccc2N)cc1` [TACEDINALINE], the Activity stood at 7.82% in [5]; 9.1% in test [6]; 4.39% in test [7]; 89.32% in test [8]; 2.91% in test [9]; 4.76% in test [10]. Moreover, the Activity in [11] is on record as 6.02%; in [12] it was 4.66%; in [13], 81.59%; in test [15], 6.96%; in [16], 9.31%; in test [18], 1.8%. For the same molecule, the concentration for half-maximal inhibition (IC50) turned out to be 20.1 µM in [3], 7.71 µM in test [4], 11.6 µM in test [1] and 18.5 µM in test [2]. In addition, the viability at 4 µM in [14] is 85.7%. Also, the viability at 8 µM in test [17] was found to be 85.6%.

As for `Nc1ccc(F)cc1NC(=O)c1ccc(CNC(=O)/C=C/c2cccnc2)cc1`, the Activity was 13.48% in [5]; 9.84% in [6]; 6.27% in test [7]; 85.67% in test [8]; 1.52% in [9]; 8.94% in test [10]. For the same molecule, the Activity in [11] was 6.46%; in test [12], 7.87%; in test [13] it was 80.14%; in [15], 10.55%; in test [16], 10.02%; in test [18], 2.1%. Besides, the 50% inhibitory concentration (IC50) in [3] stood at 11 µM; in test [4] it was 2.28 µM; in test [1], 6.44 µM; in test [2], 22.7 µM. In addition, in test [14], the viability at 4 µM worked out at 81.6%. For the same molecule, in [17], the viability at 8 µM was determined as 75.5%.

In the case of `C/C(=N\O)c1ccc(OCc2ccc(C(=O)NO)cc2)cc1`, the IC50 is 8.93 µM in test [3] and 7.77 µM in test [2].

Turning to `Nc1ccccc1NC(=O)/C=C/c1ccc(CN2CCc3ccccc3C2)cc1`, the figures for the IC50 in test [1] and in [2] were 14.2 µM and 13.5 µM, respectively.

For the molecule `O=C(NO)c1ccc(COc2ccccc2)cc1`, the half-maximal inhibitory concentration (IC50) in test [3] was determined as 28 µM; in test [2], 29.6 µM.

On to `CCCc1ccc(OCc2ccc(C(=O)Nc3ccccc3N)cc2)cc1`, for which the half-maximal inhibitory concentration (IC50) in test [3] was 5.21 µM; in [4] it was 3.23 µM; in [1], 4.42 µM; in [2] it was 4.75 µM.

On to `Nc1ccccc1NC(=O)/C=C/c1ccc(CN2CCc3ccccc32)cc1`, for which the 50% inhibitory concentration (IC50) in [3] was 13.4 µM; in test [1], more than 32 µM; in test [2], more than 32 µM.

For the molecule `COc1ccc(OCc2ccc(C(=O)Nc3ccccc3N)cc2)cc1`, the IC50 turned out to be 5.53 µM in test [3], 2.02 µM in test [4], 3.48 µM in test [1] and 4.2 µM in [2]. The inhibition entry in [19] was “Dose-dependent effect”.

For `Nc1cnccc1NC(=O)/C=C/c1ccc(COc2ccccc2)cc1`, the IC50 in test [3], in [1] and in test [2] was more than 32 µM each time.

Take `Nc1ccccc1NC(=O)c1ccc(COc2ccc(Cl)cc2)cc1`: the half-maximal inhibitory concentration (IC50) in test [3] was more than 32 µM; in test [4], 17.3 µM; in test [1], more than 32 µM; in test [2] it was more than 32 µM.

`Nc1ccccc1NC(=O)c1ccc(COc2ccc([N+](=O)[O-])cc2)cc1`: the half-inhibitory concentration (IC50) in test [3], in test [4], in test [1] and in [2] was more than 32 µM in each case.

Turning to `O=C(/C=C/c1ccc(COc2ccccc2)cc1)NO`, the IC50 came to 5.77 µM in test [3] and 8.4 µM in test [2].

Take `Nc1ccccc1NC(=O)/C=C/c1ccc(COc2ccccc2)cc1`: the concentration for half-maximal inhibition (IC50) in test [3], in test [1] and in [2] was more than 32 µM throughout.

With `O=C(/C=C/c1ccc(CN2CCc3ccccc32)cc1)NO`, the IC50 was found to be 5.48 µM in test [3] and 14.9 µM in test [2].

As to `Nc1ccccc1NC(=O)c1ccc(COc2ccccc2)cc1`, the half-maximal inhibitory concentration (IC50) was determined as 6.76 µM in test [3], 4.89 µM in test [4], 5.67 µM in test [1] and 6.7 µM in test [2].
